# Measurements from US8932597B2 (priority 2008, dated 2015).
# How the values were obtained:
# [1] = test system: anti-M2 human monoclonal antibody Z3G1; type: binding
# [2] = test system: HuM2e antibody 23K12; type: binding, human
Substance,Signal (peptides that bind to Z3G1) [1],Signal (peptides that bind to 23K21 and 8I10) [2],Signal (peptides that show specific binding to Z3G1) [1],Binding to Z3G1 (in words) [1],Binding to 23K12 (in words) [2]
339 (MSLLTECGMSLLTEV; epitope peptide) [compound 339],2170,1658,,,
677 (SLLTEVETPIQNEWGCRCNDSSD; epitope peptide) [compound 677],,731,2372,,
519 (SLLTEVETPIRNEWGCRSNDSSD; epitope peptide) [compound 519],,1016,2344,,
394 (SLLTEVETPIRNEWGCRCNMSSD; epitope peptide) [compound 394],2574,1133,,,
692 (SLLTEVETPILNEWGCRCNDSSD; epitope peptide) [compound 692],,721,2363,,
302 (ASLLTEVGSCLTEV; epitope sequence) [compound 302],,1944,2770,,
506 (SLCTEVGSLLCEV; epitope peptide) [compound 506],,1050,1863,,
700 (SLLTEVETSIRNEWGCRCNDSSD; epitope peptide) [compound 700],,715,2151,,
636 (SLLTEVETPIRNEIGCRCNDSSD; epitope peptide) [compound 636],,768,2402,,
373 (CSLLTECGMSLLTEV; epitope peptide) [compound 373],1235,1458,,,
610 (SLLTEVETDIRNEWGCRCNDSSD; epitope peptide) [compound 610],,813,2392,,
223 (CVETPIRNEWGSRSNDCSLLTEVETC; epitope peptide) [compound 223],,905,2233,,
454 (SLLTEVETPIMNEWGCRCNDSSD; epitope peptide) [compound 454],,1308,2369,,
535 (SLLTEVETPIRNEWGCRCNFSSD; epitope peptide) [compound 535],2509,963,,,
650 (SLLTEVETPVRNEWGCRCNDSSD; epitope peptide) [compound 650],,758,2331,,
588 (SLLTEVETPIRNEWGCRCNCSSD; epitope peptide) [compound 588],2505,848,,,
713 (SLLTEVETPIRNEWGQRCNDSSD; epitope peptide) [compound 713],,705,2369,,
705 (SLLTEVKTPIRNEWGCRCNDSSD; epitope peptide) [compound 705],,712,1905,,
719 (SLLTEVETPIRNEWGCTCNDSSD; epitope peptide) [compound 719],,700,2347,,

Substance,Signal (peptides that bind to Z3G1) [1],Signal (peptides that bind to 23K21 and 8I10) [2],Signal (peptides that show specific binding to Z3G1) [1],Binding to Z3G1 (in words) [1],Binding to 23K12 (in words) [2]
619 (SLLTEVETPIRNEWGCRCNASSD; epitope peptide) [compound 619],2454,807,,,
556 (SLLTELETPIRNEWGCRCNDSSD; epitope peptide) [compound 556],,900,1380,,
573 (SLLTEVETPIRNEWGCRTNDSSD; epitope peptide) [compound 573],,867,2374,,
596 (SLLTEVETPIRNEWFCRCNDSSD; epitope peptide) [compound 596],,837,2493,,
653 (SLLTEVETIIRNEWGCRCNDSSD; epitope peptide) [compound 653],,756,2096,,
662 (SLLTEVETPIRNFWGCRCNDSSD; epitope peptide) [compound 662],,747,2417,,
226 (CTEVETPIRNEWGSRSCSLLTEVETC; epitope peptide) [compound 226],,891,2140,,
300 (SLLTEVETKIRNEWGCRCNDSSD; epitope peptide) [compound 300],,1960,2485,,
698 (SLLTEVETPIRDEWGCRCNDSSD; epitope peptide) [compound 698],,716,2187,,
452 (SLLTEVGSLLTEC; epitope peptide) [compound 452],,1326,1862,,
651 (SLLTEVETPIRNEWGCRCHDSSD; epitope peptide) [compound 651],2350,758,,,
718 (SLLTEVECPIRNEWGCRCNDSSD; epitope peptide) [compound 718],,700,1974,,
416 (SLLTEVETPIRNEWGCRCNDTSD; epitope peptide) [compound 416],2394,794,,,
368 (SLLTEVETPIRNEWG; epitope peptide) [compound 368],2429,1486,,,
565 (SLLTEVETPIRVEWGCRCNDSSD; epitope peptide) [compound 565],,884,2300,,
383 (CSLLTEVGCSLLTEC; epitope peptide) [compound 383],2486,1380,,,
349 (SLATEVETPIRNEWGCRCNDSSD; epitope peptide) [compound 349],,1583,2145,,
406 (SLLTEVETPIRNEWGCRCNDFSD; epitope peptide) [compound 406],2395,788,,,
388 (CSLLTEVGCLLTEV; epitope peptide) [compound 388],,1351,2427,,

Substance,Signal (peptides that bind to Z3G1) [1],Signal (peptides that bind to 23K21 and 8I10) [2],Signal (peptides that show specific binding to Z3G1) [1],Binding to Z3G1 (in words) [1],Binding to 23K12 (in words) [2]
697 (SLLTEVETPIRNEWGCRINDSSD; epitope peptide) [compound 697],,718,2409,,
710 (SLLTEVETPIRREWGCRCNDSSD; epitope peptide) [compound 710],,707,2278,,
656 (SLLTEVETPIWNEWGCRCNDSSD; epitope peptide) [compound 656],,753,2250,,
320 (SLLTEVGSLLTEV; epitope peptide) [compound 320],,1794,2530,,
572 (SLLTEVETPIRNEKGCRCNDSSD; epitope peptide) [compound 572],,868,2580,,
409 (SLLTEVETPIRNEWGCRCNDKSD; epitope peptide) [compound 409],2484,898,,,
512 (SLLTEVETPIRNQWGCRCNDSSD; epitope peptide) [compound 512],,1039,2402,,
SLLTEVGSLLTEV (epitope peptide) [SEQ ID NO: 320],,,,recognized,best 23k12 binder
360 (CSLLTECGCSLLTEV; epitope peptide) [compound 360],1427,1534,,,
581 (SLLTEVETYIRNEWGCRCNDSSD; epitope peptide) [compound 581],,857,2290,,
695 (SLLTEVEVPIRNEWGCRCNDSSD; epitope peptide) [compound 695],,719,2286,,
395 (SLLTEVETPIRNEWGCRCNNSSD; epitope peptide) [compound 395],2502,926,,,
504 (SLLTEVETPIRNEWGFRCNDSSD; epitope peptide) [compound 504],,1057,2349,,
534 (SLLTEVEKPIRNEWGCRCNDSSD; epitope peptide) [compound 534],,963,2505,,
659 (SLLTEVETPIRNEWGARCNDSSD; epitope peptide) [compound 659],,750,2396,,
299 (SLLTEVGCLCTCV; epitope peptide) [compound 299],,1963,2346,,
389 (SLLTEVETPYRNEWGCRCNDSSD; epitope peptide) [compound 389],,1350,2303,,
354 (SLLTEVGCSLLTEV; epitope peptide) [compound 354],,1555,2511,,
563 (SLLTEVETPIRNEWGGRCNDSSD; epitope peptide) [compound 563],,887,2270,,
